Assay: gradient 5% acetonitrile 3 min, to 50% in 2 min, to 85% in 15 min, held 3 min, 100 µL/min
Details: column: Zorbax Extend-C18 2.1 x 50 mm; eluents: water / acetonitrile, 0.1% formic acid
How it was run: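 The mobile phases were water and acetonitrile, each with 0.1% formic acid, pumped at 100 μL/min through a Zorbax Extend-C18 column (2.1 × 50 mm, 1.8 μm). Pure standards were injected as mixtures of ~100 molecules and detected by a quadrupole time-of-flight mass spectrometer in positive and negative ionization mode. Retention time came from computationally picked adduct peaks, each inspected by hand.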

Compound | RP-LC retention time [s]
CCOC(=O)c1ccc(CN2C(=O)CSC2=O)cc1 | 786
O=C(NCCc1csc(C2CCCN(C(=O)C3CCC3)C2)n1)C1CC1 (stereo unspecified) | 691
CCOC(=O)c1ccc(NC(=O)Cn2c(C)cc(=O)c3cc(Br)ccc32)cc1 | 623
COc1cccc(-c2noc(Cc3nnc(-c4cccc(F)c4)o3)n2)c1OC | 934
O=C(NCc1cccs1)c1ccc(-n2cccn2)nn1 | 737
CC(=O)Cc1nsc(NC(=O)c2cc(-c3cccc(C(F)(F)F)c3)oc2C)n1 | 657
O=C(C1CCCN(c2ncnc3c2nc2n3CCCCC2)C1)N(Cc1ccco1)C1CCCC1 (stereo unspecified) | 950
CCN(CC)C(=O)c1ccc2c(c1)N(CC(=O)NC1CCCCC1)C(=O)CO2 | 724
CCCCS(=O)(=O)N1CCc2c(c(-c3nnc(SCC)n3CC)nn2C)C1 | 878
C=CCNC(=O)C1CCCN(S(=O)(=O)c2cc(OC)ccc2OC)C1 (stereo unspecified) | 723
CCCNc1cc(N2CCCC(CCC(=O)N3CCC(COC)CC3)C2)ncn1 (stereo unspecified) | 649
Cc1cc(C)n(Cc2c(C(=O)NCC34CCC=C3N(C)C(=O)CC4)noc2C)n1 (stereo unspecified) | 749
O=C(Nc1nc2ccccc2n1CCN1CCOCC1)c1ccc(Cl)cc1 | 633
CCCS(=O)(=O)c1nc2ccc(NS(=O)(=O)Cc3cc(C)ccc3C)cc2s1 | 1040
CCOc1ccc(C(=O)N2CCCC2c2nc(-c3ccc(OC)cc3)no2)cc1 (stereo unspecified) | 886
Cc1cc(Cl)ccc1NC(=O)C1CCN(S(=O)(=O)c2c(C)nn(-c3ccccc3)c2C)CC1 | 1020
c1ccc(OCc2nc(-c3cccc(-c4csc(C5CC5)n4)c3)no2)cc1 | 1330
Clc1cccc2sc(NCC3CCCO3)nc12 (stereo unspecified) | 811
Cc1ccc(-n2cc(C(=O)OCC(=O)OC(C)C)c3ccccc3c2=O)cc1 | 1130
Cc1ccc(CN2CC(F)(F)C[C@H]2c2nnc(-c3cnccn3)o2)c(C)c1 | 990
COC1CCC12CCN(C(=O)C1CCCC1)CC2 (stereo unspecified) | 841
COc1ccc(-n2ccn3cc(-c4ccc(Cl)cc4)nc3c2=O)cc1OC | 810
CC1CCN(c2nn(CC(=O)Nc3cccc(C(C)C)c3)c(=O)c3ccccc23)CC1 | 1320

Compound | RP-LC retention time [s]
COc1ccccc1N1CCN(C(=O)C2CC(=O)N(c3n[nH]c4cccc(F)c34)C2)CC1 (stereo unspecified) | 686
NC(=O)C1CCN(S(=O)(=O)Cc2c(F)cccc2Cl)CC1 | 649
CN(C)C(=O)CSc1ncnc2sccc12 | 627
Cc1nc([C@@H]2CN(S(=O)(=O)c3ccc(Cl)s3)C[C@H]2C(N)=O)n[nH]1 | 631
COc1cccc(CNC(=O)[C@@H]2[C@H](c3cc(OC)c(OC)c(OC)c3)c3cc4c(cc3[C@H](O)[C@H]2CO)OCO4)c1OC | 702
COC(=O)c1ccccc1NC(=O)NCCn1c(C)nc2ccccc21 | 630
Cc1cc(NC(=O)CSc2cn(Cc3cccc(F)c3)c3ccccc23)no1 | 951
COc1cc(OC)c(NC(=O)Nc2c(-c3cccc(C)c3)nc3ccccn23)cc1Cl | 721
Cc1cnc(C(=O)NCC2Cn3cccc3C(=O)N2CC(C)C)cn1 (stereo unspecified) | 706
CCOc1ccc(C2Cn3nnc(-c4nc(-c5ccc(C)cc5)no4)c3CO2)cc1 (stereo unspecified) | 1250
Cc1cccc(NC(=O)C2CCN(S(=O)(=O)c3cc(C(=O)N4CCC(C)CC4)n(C)c3)CC2)n1 | 722
O=c1cc(-c2ccncc2)nc(N2CCCC2)n1Cc1ccccc1F | 1220
CCCCN(C)C(=O)C1CCN(c2cncnc2N2CCCCC2)CC1 | 661
CN(C)c1ccc(NC(=O)Cn2cccc2-c2nc(-c3ccc4c(c3)OCO4)no2)cc1 | 752
CN(C)c1ccc(-c2nc3cnccn3c2Nc2cccc(C(F)(F)F)c2)cc1 | 887
O=C(NCCN1CCCCC1)c1cn2cc(Cl)ccc2n1 | 579
Cc1ccccc1S(=O)(=O)N1CCC(c2cc(N)on2)CC1 | 779
Cc1nc2cccnc2n1CCN1CCN(C(=O)Nc2ccc(Br)cc2)CC1 | 619
CSc1nc(N)c(C(=O)NC2CCCCC2)s1 | 878
Cc1[nH]cnc1CN1CCc2c(c3ccccc3n2C)C1=O | 652
COc1ccccc1-c1nc(-c2ccccn2)no1 | 813
CCCn1cc(C(=O)Nc2ccc(OC)c(Cl)c2)c(=O)c2ccc(C)nc21 | 1210
O=C(NC1CC1)c1ccc(N2CCC(NCc3ccc(F)c(F)c3)C2)nc1 (stereo unspecified) | 567

Compound | RP-LC retention time [s]
Cc1nc2cccnc2n1CCN1CCN(C(=O)Nc2ccc(Cl)cc2)CC1 | 610
CC(C)CCC(=O)NCCc1nc2cccnc2n1-c1ccccc1 | 717
COc1ccc(CNC(=O)Cn2c(C(F)(F)F)nc3cc4c(cc32)OCCO4)cc1 | 813
CS(=O)(=O)Nc1ccc(C2(C(=O)NCc3ccc4c(c3)OCO4)CCCCC2)cc1 | 857
Cc1ccccc1CN1N=C(C(=O)N2CCCC2)S(=O)(=O)c2ccccc21 | 869
CCCn1cc(SCC(N)=O)c2ccccc21 | 730
CCS(=O)(=O)N1CC(=O)N(c2cccc(F)c2)C(C)(C(=O)NCc2ccccc2)C1 (stereo unspecified) | 779
Cc1nc(NC2=NCN(CCc3cccs3)CN2)nc2ccccc12 | 731
Cc1ccc(NC(=O)N2CCc3[nH]cnc3C2c2ccncc2)c(Cl)c1 (stereo unspecified) | 753
COc1cccc(-c2ccc(=O)n(Cc3nc(-c4ccc(OC(C)C)cc4)no3)n2)c1 | 1140
Cc1ccc(C)c(NC(=O)Cn2nc3cc(C)nc(-c4ccccc4)n3c2=O)c1 | 868
COc1ccc(Cc2nnc(C3CCN(C(=O)c4ccc(=O)[nH]c4)CC3)s2)cc1 | 612
CCn1c(=O)c2cc(C(=O)N3CCC(Cc4ccccc4)CC3)nn2c2ccccc21 | 1150
CCOC(=O)CCNC(=O)N1CCC(CC2CC2)(NS(C)(=O)=O)CC1 | 672
Cc1ccc(NC(=O)N2CCCC2c2cc(C)on2)c(C)c1 (stereo unspecified) | 823
CO[C@H]1C(=O)N(C(C)C)[C@H]1C1CCN(C(=O)c2ccco2)CC1 | 692
Cc1ccc2cc(CCC(=O)NCCCN3CCCC(C)C3)c(=O)[nH]c2c1 (stereo unspecified) | 605
O=S(=O)(c1ccc2nc(N3CCN(c4cccc(Cl)c4)CC3)ccc2c1)N1CCCC1 | 1100
COC(=O)c1cccc(C(=O)N2CCN(c3cc(C)ccc3C)CC2)n1 | 959
Cc1cc(C)c2c(-n3cccc3)nn(Cc3ccc(C(=O)NCc4ccco4)cc3)c2n1 | 1060
COc1ccc(Cl)cc1NC(=O)CN1C(=O)CCSc2ccccc21 | 956
O=S(=O)(c1ccccc1F)N1CCC(OCc2noc(C3CCCO3)n2)CC1 (stereo unspecified) | 865
Cc1ccccc1NC(=O)CSc1nc(=O)n(CCN(C)C)c2c1CCC2 | 610

Compound | RP-LC retention time [s]
CC(C)(C)NC(=O)Cc1cccn1-c1ccc(Cl)cc1 | 994
O=C(CCc1c[nH]c2ccccc12)N1CCN2CCS(=O)(=O)N(C3CC3)C(=O)C2C1 (stereo unspecified) | 766
CCc1nc2cc(N3CCCC(C(=O)NCCN4CCCC4)C3)cnc2nc1CC (stereo unspecified) | 601
CCCCCn1c(=O)c2ccccc2n(Cc2nc(-c3ccc(OC)c(OC)c3)no2)c1=O | 1120
Cc1occc1C(=O)N1CCCn2ccnc2C1c1cnn(C)c1 (stereo unspecified) | 573
COCC(=O)N1CCCc2ccc(NC(=O)c3cc(C)on3)cc21 | 680
CCSc1nnc(NC(=O)CSc2nnc(COc3ccccc3)o2)s1 | 806
COc1ccc(-c2cc(N3CCC(NC(=O)c4cccc(Br)c4)C3)n[nH]2)cc1 (stereo unspecified) | 738
Cc1ccc(NC(=O)CN2C(=O)CCc3cc(S(=O)(=O)N4CCCCC4C)ccc32)cc1 (stereo unspecified) | 797
Cc1cc(-c2cc(S(=O)(=O)NCc3ccccc3Cl)c(C)s2)n[nH]1 | 847
O=C(Nc1ccc2c(c1)OCO2)C1CCN(c2cc(N3CCCCC3)ncn2)CC1 | 677
CN1CCN(c2cc(-c3nc(-c4ccccc4)no3)c3ccccc3n2)CC1 | 796
CC(C)n1nc(CNC(=O)c2ccc(Br)o2)c2ccccc21 | 926
CC(=O)Nc1cccc(-c2nc(-c3ccc4c(c3)oc(=O)n4C(C)C)no2)c1C | 873
O=C(c1cc(S(=O)(=O)N2CCCC(C(=O)N3CCN(c4ccccc4)CC3)C2)c[nH]1)N1CCCC1 (stereo unspecified) | 804
CCN(CC)CCCNC(=O)C1CCCN(c2ncnc3c2nc2n3CCCCC2)C1 (stereo unspecified) | 556
O=C(Nc1ccc(OCc2nnc(-c3ccccc3)o2)cc1)c1ccoc1 | 808
Cc1ccc(-c2cn3c(CC(=O)NCc4ccccc4)csc3n2)cc1C | 826
Cc1ccccc1Cn1nc2c(S(=O)(=O)N3CCc4ccccc4C3)cccn2c1=O | 987
O=c1ccc(-c2ccccc2)nn1Cc1nc(-c2ccc(Br)cc2)no1 | 1100
Cc1ccc(Nc2ncccc2C(=O)O)cc1C | 707
CC(C)(C)c1noc(-c2ccc(-n3cnc(C(=O)NCC4CC4)c3)nc2)n1 | 896

Source: the METLIN SMRT retention time set (Domingo-Almenara et al. 2019)
